“Also recorded” adds a separate entry of the source.
Assays:
[1] = biological target: T1, Aβ (1-42) (Homo sapiens, UniProt P05067); assay: in vitro ThT fluorescence assay for Aβ (1-42) aggregation; format: biochemical; details: 10 μM compound, 2 μM Aβ (1-42), 20 μM ThT, pH 8.0, 37° C.; FIG. 6A
T1 construct: an Aβ (1-42) peptide (AGP-8338, Anygen, Gwangju, Republic of Korea); purchased Anygen AGP-8338
Procedure: The degree of inhibition of Aβ (1-42) aggregation was measured using an in vitro ThT fluorescence assay. An Aβ (1-42) stock (0.2 mM) was prepared in 50% DMSO, and NDGA and CU stocks were prepared in 100% DMSO. Reactions for Aβ (1-42) aggregation (2 μM) and its inhibition by NDGA or CU (10 μM) were performed in a 20 mM sodium phosphate buffer (pH 8.0) supplemented with 0.2 mM EDTA and 0.02% sodium azide in the presence of 20 μM ThT in microplate wells (Corning® 96-well Black Flat Bottom Polystyrene Not Treated Microplate, Corning). ThT fluorescence intensity was measured every 30 minutes under 0.5 min shaking under 335 rpm/29.5 min incubation conditions at 37° C. using an Infinite […] (TECAN Mannedorf, Switzerland) microplate reader with 450-nm excitation and 480-nm emission filters.

[2] = tested on: Alzheimer's disease-derived spheroids (PS1-mutated AD-iPSC-NPCs); assay: Aβ (1-42) ELISA in Alzheimer's disease-derived spheroids cultured with drug; format: cell-based, human; details: 10 μM, 3 days; FIG. 6B
Procedure: (§1) For drug efficacy testing of 3D cultured cells, PS1-mutated AD-iPSC-NPCs were differentiated into spheroids in a U-bottom plate (Thermo Fisher Scientific). Spheroids were cultured with nordihydroguaiaretic acid (NDGA)(10 μM, Tokyo Chemical Industry, Tokyo, Japan) or curcumin (CU)(10 μM, Tokyo Chemical Industry) in a humidified incubator under 37° C. and 5% CO^2 conditions for 3 days and then fixed for immunocytochemistry and western blotting.

[3] = tested on: Alzheimer's disease-derived spheroids (PS1-mutated AD-iPSC-NPCs); assay: ThT staining of Aβ aggregates in Alzheimer's disease-derived spheroids; format: cell-based, human; details: 10 μM, 3 days; confocal microscopy; FIG. 6C
Procedure: as §1
(§2) After washing with a probe-free medium, samples were captured and analyzed using a fluorescence microscope (FV3000, Olympus).

[4] = tested on: Alzheimer's disease-derived spheroids (PS1-mutated AD-iPSC-NPCs); assay: CellEvent Caspase-3/7 Green activated caspase staining in Alzheimer's disease-derived spheroids; format: cell-based, human; details: for CellEvent fluorescence signal (activated caspase cell death staining): 10 μM, 3 days, confocal microscopy, FIG. 6D; for green fluorescence of activated caspase, confocal z-stack from surface to inside of spheroids (cell penetration/uptake): confocal z-stack images, FIG. 7
Procedure: as §1
(§3) After being washed with a probe-free medium, samples were captured and analyzed using a fluorescence microscope (FV3000, Olympus). Cell penetration/uptake by CellEvent staining was analyzed with confocal z-stack data for the green fluorescence of activated caspase released from the inside of spheroids. The confocal z-stack data was obtained from 100 slides of each 1 μm of one spheroid.

[5] = tested on: 3D spheroids manufactured from iPSC-NPCs derived from healthy individuals; assay: ThT staining of control 3D spheroids treated with oligomerized Aβ; format: cell-based, human; details: Aβ aggregates 10 μM, 24 hours, compared to spheroids not treated with Aβ; FIG. 4A
Excerpt: (§4) J Neurosci Methods. 2010; 190(2): 171-179. […] When used, Aβ was suspended in PBS and used.
as §2

[6] = tested on: 3D spheroids manufactured from iPSC-NPCs derived from healthy individuals; assay: CellEvent activated caspase staining of control 3D spheroids treated with oligomerized Aβ; format: cell-based, human; details: Aβ aggregates 10 μM, 24 hours, compared to untreated; FIG. 4C
Procedure: as §4, §3

T1 sequence (P05067 672-713 limits assumed): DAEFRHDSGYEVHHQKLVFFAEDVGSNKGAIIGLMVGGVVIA

Row | Compound | Aβ (1-42) aggregation (ThT fluorescence) [1] | Aβ (1-42) levels by ELISA [2] | ThT fluorescence signal / staining intensity (Aβ aggregates) [3] | CellEvent fluorescence signal (activated caspase cell death staining) [4] | green fluorescence of activated caspase, confocal z-stack from surface to inside of spheroids (cell penetration/uptake) [4] | ThT fluorescence emission [5] | green fluorescence emission according to CellEvent staining (cell death) [6]
1 | CC(Cc1ccc(O)c(O)c1)C(C)Cc1ccc(O)c(O)c1 (stereo not drawn) [NDGA, nordihydroguaiaretic acid] | suppressed | decreased; also recorded: reduced | reduced | reduced | reduction in fluorescence from the surface to the inside of spheroids | – | –
2 | oligomerized Aβ: Aβ (1-42) peptide aggregated/oligomerized in DMSO, used to treat control spheroids | – | – | – | – | – | noticeably increased | substantially increased
3 | COc1cc(/C=C/C(=O)CC(=O)/C=C/c2ccc(O)c(OC)c2)ccc1O [CU, curcumin] | suppressed | decreased; also recorded: reduced | reduced | reduced | reduction in fluorescence from the surface to the inside of spheroids | – | –

Source: patent US20240279604A1, “3D spheroid having uniform size and composition comprising neuron and astrocyte derived from Alzheimer's disease patients, method for producing thereof, and method and kit for screening drug using thereof” (Industry-University Cooperation Foundation Hanyang …, priority 2023, published 2024)
